The results in this text go back to ChEMBL document CHEMBL1143962, “Protective effect of irisolidone, a metabolite of kakkalide, against hydrogen peroxide induced cell damage via antioxidant effect” (2008).

Active and inactive are the calls of the source. The calls are words filed in the database; no cut-off is given here.

Assay [1] in a line: DPPH radical scavenging activity at 1 ug/ml after 30 mins. The format is functional.
Assay [2] can be described thus: DPPH radical scavenging activity at 10 ug/ml after 30 mins. The format is functional.
A short description of assay [3]: DPPH radical scavenging activity at 50 ug/ml after 30 mins. Format: functional.
Assay [4] concerns V79-4. The assay is described as follows: Protective effect on hydrogen peroxide-induced cell damage in chinese hamster V79-4 cells assessed as decrease in apoptotic sub-G1 DNA content at 50 ug/ml by flow cytometry. The format is functional, Cricetulus griseus. The arrangement: scale not given: the % may be the effect or the level left.
In assay [5] the test system is V79-4. The assay is described as follows: Protective effect on hydrogen peroxide-induced cell damage in chinese hamster V79-4 cells assessed as decrease in DNA fragmentation level at 50 ug/ml by ELISA. Format: functional, cell-based. The note with it: Cricetulus griseus.
Assay [6] deals with V79-4. Put plainly: Protective effect on hydrogen peroxide-induced damage in chinese hamster V79-4 cells in presence of U0126 by MTT assay. The format is functional, cell-based. The note with it: Cricetulus griseus.
Assay [7] has as its system V79-4. Put plainly: Activation of ERK in chinese hamster V79-4 cells assessed as phosphorylated ERK within 6 hrs. The format is cell-based. The note with it: Cricetulus griseus.
In assay [8] the target is Transcription factor Jun (Homo sapiens) (UniProt P05412). Put plainly: Increase in transcriptional activity of AP1 transfected in V79-4 cells by luciferase assay. Format: cell-based.
Chain of Transcription factor Jun (Homo sapiens) (P05412 whole entry): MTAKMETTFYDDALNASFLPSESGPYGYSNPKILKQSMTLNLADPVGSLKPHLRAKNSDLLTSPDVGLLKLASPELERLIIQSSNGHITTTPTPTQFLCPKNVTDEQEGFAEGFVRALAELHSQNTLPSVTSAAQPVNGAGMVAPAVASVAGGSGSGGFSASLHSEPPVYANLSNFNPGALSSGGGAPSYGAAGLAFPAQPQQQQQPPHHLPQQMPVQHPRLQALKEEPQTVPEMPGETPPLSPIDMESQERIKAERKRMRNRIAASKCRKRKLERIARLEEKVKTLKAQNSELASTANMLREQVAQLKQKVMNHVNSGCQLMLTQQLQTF
Assay [9] relates to V79-4. Put plainly: Effect on hydrogen peroxide-induced DNA damage in chinese hamster V79-4 cells assessed as decrease in phospho H2A.X expression. Format: functional, cell-based. The note with it: Cricetulus griseus.
The subject of assay [10] is V79-4. Put plainly: ROS scavenging activity in chinese hamster V79-4 cells at 1 ug/mL after 30 mins by DCF-DA method. Format: functional, Cricetulus griseus.
Assay [11] deals with V79-4. The assay is described as follows: ROS scavenging activity in chinese hamster V79-4 cells at 10 ug/mL after 30 mins by DCF-DA method. Format: functional, Cricetulus griseus.
The test system of assay [12] is V79-4. The assay is described as follows: ROS scavenging activity in chinese hamster V79-4 cells at 50 ug/mL after 30 mins by DCF-DA method. The format is functional, Cricetulus griseus.
The subject of assay [13] is V79-4. The assay is described as follows: Decrease in hydrogen peroxide-induced 8-OHdG in chinese hamster V79-4 cells at 1 ug/mL. The format is functional, Cricetulus griseus.
Assay [14] deals with V79-4. The assay is described as follows: Inhibition of hydrogen peroxide-induced lipid peroxidation in chinese hamster V79-4 cells assessed as TBARS per mg of protein at 1 ug/mL. The format is functional, Cricetulus griseus.
Assay [15] deals with V79-4. Put plainly: Inhibition of hydrogen peroxide-induced lipid peroxidation in chinese hamster V79-4 cells assessed as TBARS per mg of protein at 10 ug/mL. The format is functional, Cricetulus griseus.
Assay [16] relates to V79-4. The assay is described as follows: Inhibition of hydrogen peroxide-induced lipid peroxidation in chinese hamster V79-4 cells assessed as TBARS per mg of protein at 50 ug/mL. The format is functional, Cricetulus griseus.
Assay [17] relates to V79-4. Put plainly: Decrease in hydrogen peroxide-induced 8-OHdG in chinese hamster V79-4 cells at 10 ug/mL. The format is functional, Cricetulus griseus.
The subject of assay [18] is V79-4. The assay is described as follows: Decrease in hydrogen peroxide-induced 8-OHdG in chinese hamster V79-4 cells at 50 ug/mL. Format: functional, Cricetulus griseus.
Assay [19] concerns V79-4. The assay is described as follows: Protection against hydrogen peroxide-induced apoptosis in chinese hamster V79-4 cells assessed as cell survival by MTT assay. The format is functional, Cricetulus griseus.

Take `COc1ccc(-c2coc3cc(O)c(OC)c(O)c3c2=O)cc1` [IRISOLIDONE]: the Activity in assay [1] came to 10%; in assay [2], 19%; in [3], 44%; in the assay with V79-4 [4] it was 36%; with V79-4 [10] it was 41%; in the assay with V79-4 [11] it was 58%. Also, the Activity in the assay with V79-4 [12] was determined as 66%; with V79-4 [13], 9280 pg/mL; in the assay on V79-4 [14] it was 1.2 µmol; in the assay with V79-4 [15], 1 µmol; in the assay with V79-4 [16], 0.8 µmol; in the assay with V79-4 [17] it was 7956 pg/mL. The molecule further returned an Activity in the assay on V79-4 [18] of 6409 pg/mL. Also, the result (with V79-4 [5]; with V79-4 [7]; in assay [8]; in the assay on V79-4 [9]) was Active. In addition, in the assay with V79-4 [6], the outcome was inactive. Besides, in the assay on V79-4 [19], the Survival is 48%.
Take `COc1ccc(-c2coc3cc(O[C@@H]4O[C@H](COC5OC[C@@H](O)[C@H](O)[C@H]5O)[C@@H](O)[C@H](O)[C@H]4O)c(OC)c(O)c3c2=O)cc1` (stereo not given in full) [KAKKALIDE]: the Activity in assay [1] came to 8%; in assay [2] it was 12%; in assay [3], 28%; in the assay on V79-4 [10], 29%; in the assay with V79-4 [11], 37%; in the assay with V79-4 [12], 51%.
